“Also recorded” adds a separate entry of the source.
Assays:
human ERα = molecular target: T1, human ERα (Homo sapiens, UniProt P03372); test: 5-HT1A receptor promoter (-901luc) luciferase reporter, COS-1 cells cotransfected with NF-κB (p50, p65) and ERα; format: cell-based
T1 construct: expressed in transfected cells; host or cells: COS-1 (monkey)
T1 sequence (P03372 1-595): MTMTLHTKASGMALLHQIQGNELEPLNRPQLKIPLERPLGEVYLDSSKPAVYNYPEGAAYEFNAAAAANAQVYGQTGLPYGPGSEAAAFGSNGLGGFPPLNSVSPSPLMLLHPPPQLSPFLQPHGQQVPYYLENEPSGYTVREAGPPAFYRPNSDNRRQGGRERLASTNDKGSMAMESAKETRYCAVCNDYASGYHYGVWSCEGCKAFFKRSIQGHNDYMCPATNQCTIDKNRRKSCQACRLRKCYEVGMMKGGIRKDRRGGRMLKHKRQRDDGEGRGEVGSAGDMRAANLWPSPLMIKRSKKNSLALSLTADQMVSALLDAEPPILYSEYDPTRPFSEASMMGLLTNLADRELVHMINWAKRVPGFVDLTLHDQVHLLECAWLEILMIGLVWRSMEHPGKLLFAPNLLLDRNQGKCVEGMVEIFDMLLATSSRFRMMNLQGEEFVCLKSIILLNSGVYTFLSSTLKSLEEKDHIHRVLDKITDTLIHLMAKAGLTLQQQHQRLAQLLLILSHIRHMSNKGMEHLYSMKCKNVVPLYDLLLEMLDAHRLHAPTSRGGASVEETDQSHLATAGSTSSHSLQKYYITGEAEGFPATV
Text: Depicted is the induction of luciferase activity evoked by NF-κB over cells transfected with empty expression vector. Bars represent the mean of at least three independent experiments ±S.D. (B) COS-1 cells were transiently transfected with 4×NF-κ B(HIV)tkluc in combination with empty expression vector or expression vectors encoding the p50 and p65 subunits of NF-κB and expression vectors encoding ERα or ERβ. Cells were either untreated (white bars) or treated with 10^−8 M E2 (black bars) for 24 h. Depicted is the induction of luciferase activity evoked by NF-κB over cells transfected with empty expression vector. Bars represent the mean of at least three independent experiments ±S.D.
(A) COS-1 cells were transiently transfected with the −901luc reporter construct together with empty expression vector or expression vectors encoding the p50 and p65 subunits of NF-κB in combination with expression vectors encoding ERα and treated with E2, OH-T or ICI for 24 h as indicated. Depicted is the induction of luciferase activity evoked by NF-κB over cells transfected with empty expression vector. Bars represent the mean of at least three independent experiments ±S.D. FIG. 4. […] Depicted is the induction of luciferase activity evoked by the NF-κB subunits over cells transfected with empty expression vector. Bars represent the mean of at least three independent experiments ±S.D.
Cell Culture. […]

classical ERE = details: transactivation experiments, reference 22; cited from earlier work
ERα = ERα (Homo sapiens, UniProt P03372); details: cited from earlier work

Substance: 4-hydroxytamoxifen
- enhancement of 5-HT1A receptor promoter activity by ERα and NF-κB (human ERα): further induced; also recorded: as potent as E2
- transcription of genes regulated by a classical ERE (classical ERE): inhibited transcription
- transcription of genes under the control of an AP-1 element with ERα (ERα): activated
